The supplement of paper PMC10307832

Legend:
Assay in all cases: relative viability (nuclei count vs DMSO), 5 days (fraction); higher = more cells survive
[1] = compound: O=c1[nH]cc(F)c(=O)[nH]1 [5-Fluorouracil] + CS(=O)(=O)N1CCN(Cc2cc3nc(-c4cccc5[nH]ncc45)nc(N4CCOCC4)c3s2)CC1 [Pictilisib] (partner 1 µM)
Outline: (§1)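 Relative viability divides the nuclei count in treated wells by that in vehicle wells. Lung cancer cell lines were seeded in 1536-well plates, dosed by pin tool the next day, and fixed and stained after 5 days in one step with final 0.05% Triton X-100, 1% formaldehyde and 1 ug/ml Hoechst. Dosing was a single drug or a fixed anchor-drug dose plus five library-drug doses (not always all listed) in √10 steps, and values are medians of duplicate plates imaged at 4×.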

[2] = compound: O=c1[nH]cc(F)c(=O)[nH]1 [5-Fluorouracil] + COc1cc2c(Oc3ccc(NC(=O)C4(C(=O)Nc5ccc(F)cc5)CC4)cc3F)ccnc2cc1OCCCN1CCOCC1 [Foretinib] (partner 0.25 µM)
Outline: as §1

Staurosporine + OSI-027 = compound: CN[C@@H]1C[C@H]2O[C@@](C)([C@@H]1OC)n1c3ccccc3c3c4c(c5c6ccccc6n2c5c31)C(=O)NC4 [Staurosporine] + COc1cccc2cc(-c3nc([C@H]4CC[C@H](C(=O)O)CC4)n4ncnc(N)c34)[nH]c12 [OSI-027] (partner 0.5 µM)
Outline: as §1

[3] = compound: O=c1[nH]cc(F)c(=O)[nH]1 [5-Fluorouracil] + CC(=O)c1c(C)c2cnc(Nc3ccc(N4CCNCC4)cn3)nc2n(C2CCCC2)c1=O [Palbociclib] (partner 0.5 µM)
Outline: as §1

Cell Line	relative viability ([1]; first compound 0.02 µM)	relative viability ([1]; first compound 0.2 µM)	relative viability ([1]; first compound 0.6325 µM)	relative viability ([1]; first compound 2 µM)	relative viability ([2]; first compound 0.02 µM)	relative viability ([2]; first compound 0.2 µM)	relative viability ([2]; first compound 0.6325 µM)	relative viability ([2]; first compound 2 µM)	relative viability (Staurosporine + OSI-027; first compound 0.005 µM)	relative viability (Staurosporine + OSI-027; first compound 0.01581 µM)	relative viability (Staurosporine + OSI-027; first compound 0.05 µM)	relative viability (Staurosporine + OSI-027; first compound 0.5 µM)	relative viability ([3]; first compound 0.02 µM)	relative viability ([3]; first compound 0.2 µM)	relative viability ([3]; first compound 0.6325 µM)	relative viability ([3]; first compound 2 µM)	relative viability (Staurosporine + OSI-027; first compound 0.1581 µM)
NCI-H1975	0.309	0.308	0.262	0.217	0.999	0.898	0.469	0.259	0.573	0.144	0.187	0.0826	0.671	0.768	0.355	0.189	–
NCI-H1993	0.793	0.657	0.661	0.779	0.741	0.728	0.706	0.667	0.551	0.445	0.614	0.461	0.681	1.19	0.469	0.494	0.399
NCI-H2009	0.798	0.679	0.533	0.446	1.31	1.27	1.12	0.669	0.233	–	0.163	0.082	0.196	0.229	0.169	0.213	0.123
NCI-H2023	0.283	0.164	0.0894	0.0821	0.757	0.243	0.159	0.0994	0.185	0.101	0.084	0.0498	0.397	0.155	0.0836	0.102	0.0704
NCI-H2085	0.461	0.504	0.445	0.507	1.02	0.899	0.93	0.592	0.597	0.168	0.249	0.148	0.434	0.504	0.473	0.5	0.155
NCI-H2087	0.912	0.916	0.607	0.602	1.27	1.05	0.628	0.519	0.366	0.135	0.147	0.107	0.234	0.243	0.164	0.179	0.106
NCI-H2126	0.504	0.354	0.305	0.306	1.32	0.592	0.399	0.361	0.712	0.406	0.486	0.333	0.348	0.29	0.299	0.274	0.338
NCI-H2170	0.354	0.338	0.314	0.285	1	0.872	0.537	0.44	0.815	–	0.576	0.0943	0.407	0.368	0.268	0.249	0.175
NCI-H2228	0.378	0.309	0.205	0.201	0.981	0.808	0.625	0.343	0.689	0.273	0.188	0.0902	0.79	0.733	0.509	0.356	0.0855
NCI-H2347	0.688	0.44	0.407	0.363	0.689	0.822	0.453	0.513	0.385	0.229	0.171	0.238	0.455	0.381	0.395	0.326	0.277
NCI-H2405	0.566	0.536	0.303	0.463	1	1.13	1.01	1.02	0.593	0.182	0.116	0.0903	0.541	0.579	0.529	0.48	0.0974
NCI-H3122	0.608	0.662	0.312	0.256	0.956	0.721	0.363	0.218	1.25	–	0.857	0.0733	0.216	0.174	0.175	0.174	0.155
PC-3 [JPC-3]	0.77	0.757	0.796	0.612	1.06	1.03	0.881	0.703	0.678	0.295	0.39	0.229	0.562	0.582	0.576	0.509	0.303
PC-14	0.711	0.763	0.7	0.415	1.1	0.987	0.757	0.58	0.325	0.0499	0.0618	0.0305	0.585	0.504	0.435	0.311	0.0552
RERF-LC-KJ	0.587	0.593	0.604	0.465	0.901	0.938	0.831	0.823	0.475	0.3	0.234	0.181	1.06	0.991	0.891	0.677	0.234
SK-LU-1	0.491	0.558	0.549	0.402	0.819	0.902	0.75	0.681	0.214	0.0957	–	0.0858	0.398	0.388	0.382	0.373	0.113
SK-MES-1	0.34	0.338	0.297	0.196	0.872	0.946	0.45	0.358	0.202	0.18	0.147	0.106	0.337	0.285	0.244	0.277	0.134
SW 1573	–	0.597	0.519	0.328	0.867	1.11	0.784	0.641	0.161	0.11	0.085	0.0578	0.398	0.353	0.29	0.236	0.0637
